{"source": "patent US20260199213A1", "about": "“PEPTIDE HAVING ACTIVITY OF IMPROVING STATE OF SKIN, AND USE THEREOF” (CAREGEN CO., LTD., priority 2022, published 2026)", "key": {"[1]": {"system": "reactive oxygen species in NIH3T3 cells", "experiment": "Reactive oxygen species increased by ultraviolet rays in NIH3T3 cells (DCF-DA, flow cytometry)", "assay_type": "cell-based", "conditions": "fibroblasts (NIH3T3); 6 J/cm^2 UV; 10 μM, 50 μM or 1000 μM peptide; 24 hours", "protocol": "In this example, the aim was to confirm the effect of the peptide according to an embodiment on the antioxidant effect in damaged skin, by evaluating the change in the level of reactive oxygen species in skin cells increased by ultraviolet irradiation.\nSpecifically, NIH3T3 cells or HaCaT cells were seeded in a 6-well plate at a density of 5×10^5 cells/well and cultured for 24 hours. Next, the cells were washed once with serum-free DMEM media, and 10 μM, 50 μM or 1000 μM of the peptide consisting of the amino acid sequence of SEQ ID NO: 1 was dispensed into 1 mL of the serum-free media, and cultured in a CO2 incubator at 37° C. for 1 hour. Next, the above culture was transferred to an e-tube, mixed with 1 ml of PBS, and dispensed into a well plate. Next, using a UV irradiator (VILBER LOURMAT, Cat No.: 3102-BSU, France), 6 J/cm^2 ultraviolet rays were irradiated to NIH3T3 cells, and 15 mJ/cm^2 ultraviolet rays were irradiated to HaCaT cells. Next, the PBS in the well plate was removed, 900 μL of the culture medium in which the peptides were dispensed was added, and the plate was cultured in a CO2 incubator at 37° C. for 24 hours. […] After washing the centrifuged cells with PBS, FL1 fluorescence values were measured through flow cytometry (FACS, BD, USA). […]"}, "MMP-1": {"system": "MMP-1", "experiment": "MMP-1 expression increased by ultraviolet rays in HaCaT cells (western blot)", "assay_type": "cell-based", "conditions": "20 mJ/cm^2 UV, 10 μM, 50 μM or 1000 μM peptide, 24 hours, FIG. 15", "from_the_text": "It has been reported that MMP-1 (matrix metalloproteinase-1) promotes the decomposition of collagen and the reduction of elastin in the dermis layer, thereby creating wrinkles and causing a decrease in elasticity in the skin. Accordingly, in this example, the aim was to confirm the effect of the peptide according to an embodiment on improving extrinsic skin aging, including improving wrinkles and increasing elasticity, etc., by evaluating the change in the expression level of MMP-1 increased by ultraviolet irradiation.\nSpecifically, NIH3T3 cells or HaCaT cells were seeded in a 6-well plate at a density of 5×10^5 cells/well and cultured for 24 hours. Next, the cells were washed once with serum-free DMEM media, and 10 μM, 50 μM or 1000 μM of the peptide consisting of the amino acid sequence of SEQ ID NO: 1 was dispensed into 1 mL of the serum-free media, and cultured in a CO2 incubator at 37° C. for 1 hour. Next, the above culture was transferred to an e-tube, mixed with 1 ml of PBS, and dispensed into a well plate. Next, using a UV irradiator (VILBER LOURMAT, Cat No.: 3102-BSU, France), 6 J/cm^2 ultraviolet rays were irradiated to NIH3T3 cells, and 20 mJ/cm^2 ultraviolet rays were irradiated to HaCaT cells. […] Next, MMP-1 was detected using […]. […]"}}, "data": [{"substance": "GPRGDP [SEQ ID NO: 1]", "values": [{"measurement": "level of reactive oxygen species increased by ultraviolet irradiation", "setting": "[1]", "result": "reduced"}, {"measurement": "expression of MMP-1 increased by ultraviolet irradiation", "setting": "MMP-1", "result": "reduced or restored"}]}]}
